Experimental data as given in DBAASP.
In brackets after ≈: the same amount, converted by molar mass.

Key:
Test in all cases: ≥ marks a high value that may be exact or a test limit, other limits are often not marked, values filed in µg/mL are converted to µM
[1] = tested on: Escherichia coli DH5alpha
[2] = tested on: Pseudomonas aeruginosa NBRC 13275
[3] = tested on: Staphylococcus aureus NBRC 13276
[4] = tested on: Cronobacter muytjensii ATCC 51329
[5] = tested on: Cronobacter sakazakii ATCC BAA-894
[6] = tested on: Cronobacter sakazakii DPC 6440
[7] = tested on: Cronobacter sakazakii DSM 4485
[8] = tested on: Escherichia coli NCIMB 11843
[9] = tested on: Escherichia coli O111
[10] = tested on: Escherichia coli O157:H7
[11] = tested on: Klebsiella pneumoniae NCIMB 13218
[12] = tested on: Pseudomonas aeruginosa ATCC 27853
[13] = tested on: Pseudomonas fluorescens NCIMB 9046
[14] = tested on: Salmonella enterica subsp. enterica serovar Typhimurium DT104
[15] = tested on: Salmonella enterica subsp. enterica serovar Typhimurium LT2
[16] = tested on: Staphylococcus aureus NCTC 7428
[17] = tested on: Staphylococcus aureus NCTC 8325-4
[18] = tested on: Staphylococcus aureus Newman
[19] = tested on: Staphylococcus aureus RF122
[20] = tested on: Staphylococcus aureus RN4220
[21] = tested on: Staphylococcus aureus SA113
[22] = tested on: Bacillus subtilis AB91021
[23] = tested on: Bacillus thuringiensis AB92037
[24] = tested on: Escherichia coli AB94012
[25] = tested on: Escherichia coli ATCC 25922
[26] = tested on: Micrococcus luteus AB93113
[27] = tested on: Pseudomonas aeruginosa ATCC 9027
[28] = tested on: Staphylococcus aureus AB208193
[29] = tested on: Staphylococcus aureus ATCC 25923
[30] = tested on: Staphylococcus aureus ATCC 6538
[31] = tested on: Staphylococcus aureus P1374
[32] = tested on: Staphylococcus aureus P1381
[33] = tested on: Staphylococcus aureus P1389
[34] = tested on: Staphylococcus epidermidis AB208187
[35] = tested on: Staphylococcus epidermidis AB208188
[36] = tested on: Bacillus cereus ATCC 11778
[37] = tested on: Listeria monocytogenes ATCC BAA-751
[38] = tested on: Salmonella enterica subsp. enterica serovar Typhimurium ATCC 14028
[39] = tested on: Staphylococcus aureus ATCC 29213
[40] = tested on: Staphylococcus aureus ATCC 43300
[41] = tested on: Bacillus subtilis MTCC 121
[42] = tested on: Escherichia coli ATCC 11775
[43] = tested on: Escherichia coli ATCC 35218
[44] = tested on: Escherichia coli ML-35p
[45] = tested on: Klebsiella pneumoniae ATCC 13883
[46] = tested on: Klebsiella pneumoniae ATCC 700603
[47] = tested on: Micrococcus luteus MTCC 166
[48] = tested on: Salmonella enterica subsp. enterica serovar Abony NCTC 6017
[49] = tested on: Salmonella enterica subsp. enterica serovar Typhi Vi+
[50] = tested on: Staphylococcus aureus ATCC 33592
[51] = tested on: Staphylococcus epidermidis MTCC 435
[52] = tested on: Staphylococcus saprophyticus MTCC 6155

CC(=O)N[C@@H](CCCCN)C(=O)N[C@@H](Cc1ccccc1)C(=O)N[C@@H](CC(C)C)C(=O)N[C@@H](Cc1cnc[nH]1)C(=O)N[C@@H](CO)C(=O)N[C@@H](C)C(=O)N[C@@H](CCCCN)C(=O)N[C@@H](CCCCN)C(=O)N[C@@H](Cc1ccccc1)C(N)=O [KFLHSAKKF]
MIC [1]: ≥ 200 µM
MIC [2]: ≥ 200 µM
MIC [3]: ≥ 400 µM

CC(C)C[C@H](NC(=O)[C@H](CC(C)C)NC(=O)[C@H](CC(N)=O)NC(=O)[C@H](CCC(=O)O)NC(=O)[C@H](CC(N)=O)NC(=O)[C@H](CC(C)C)NC(=O)[C@@H](N)C(C)C)C(=O)N[C@@H](CCCN=C(N)N)C(=O)O [VLNENLLR]
MIC [4]: ≥ 625 µM
MIC [5]: ≥ 625 µM
MIC [6]: ≥ 1250 µM
MIC [7]: ≥ 625 µM
MIC [8]: ≥ 1250 µM
MIC [9]: ≥ 2060 µM
MIC [10]: ≥ 2060 µM
MIC [11]: ≥ 1250 µM
MIC [12]: 64 µM (≈ 62.1 µg/mL)
MIC [13]: ≥ 1250 µM
MIC [14]: ≥ 2060 µM
MIC [15]: ≥ 1250 µM
MIC [16]: ≥ 2060 µM
MIC [17]: ≥ 1250 µM
MIC [18]: ≥ 1250 µM
MIC [19]: ≥ 1250 µM
MIC [20]: ≥ 1250 µM
MIC [21]: ≥ 1250 µM

CC[C@H](C)[C@H](NC(=O)[C@H](CCCCN)NC(=O)[C@@H](NC(=O)[C@H](C)NC(=O)[C@H](CC(C)C)NC(=O)[C@H](CCCCN)NC(=O)[C@H](Cc1ccccc1)NC(=O)[C@H](CC(C)C)NC(=O)[C@H](C)NC(=O)CNC(=O)[C@H](Cc1ccccc1)NC(=O)[C@@H](N)Cc1ccccc1)[C@@H](C)O)C(=O)N[C@H](C(=O)N1CCC[C@H]1C(=O)N[C@@H](CO)C(=O)N[C@@H](CC(C)C)C(=O)N[C@@H](Cc1ccccc1)C(=O)N[C@@H](CCCN=C(N)N)C(=O)O)[C@@H](C)CC [FFGALFKLATKIIPSLFR]
MIC [22]: 3 µM (≈ 6.21 µg/mL)
MIC [23]: 1.5 µM (≈ 3.1 µg/mL)
MIC [24]: ≥ 48.3 µM
MIC [25]: 12.1 µM (≈ 25 µg/mL)
MIC [26]: ≥ 48.3 µM
MIC [27]: 12.1 µM (≈ 25 µg/mL)
MIC [28]: 3 µM (≈ 6.21 µg/mL)
MIC [29]: 3 µM (≈ 6.21 µg/mL)
MIC [30]: 1.5 µM (≈ 3.1 µg/mL)
MIC [31]: 3 µM (≈ 6.21 µg/mL)
MIC [32]: 3 µM (≈ 6.21 µg/mL)
MIC [33]: 1.5 µM (≈ 3.1 µg/mL)
MIC [34]: 1.5 µM (≈ 3.1 µg/mL)
MIC [35]: 1.5 µM (≈ 3.1 µg/mL)

CC[C@H](C)[C@H](NC(=O)CNC(=O)[C@H](CCCCN)NC(=O)[C@@H](NC(=O)[C@H](CC(C)C)NC(=O)[C@H](CCCCN)NC(=O)CNC(=O)[C@H](CC(C)C)NC(=O)CNC(=O)[C@H](CO)NC(=O)[C@H](CCCCN)NC(=O)[C@H](Cc1ccccc1)NC(=O)[C@@H](NC(=O)[C@H](CCCN=C(N)N)NC(=O)[C@H](CCCCN)NC(=O)[C@H](CC(C)C)NC(=O)CN)[C@@H](C)CC)C(C)C)C(=O)N[C@@H](CO)C(=O)N[C@@H](C)C(=O)N[C@@H](Cc1cnc[nH]1)C(=O)N[C@H](C(=O)N[C@@H](C)C(=O)N[C@@H](CO)C(=O)O)C(C)C [GLKRIFKSGLGKLVKGISAHVAS]
MIC [36]: ≥ 125 µM
MIC [25]: 62.5 µM (≈ 148 µg/mL)
MIC [37]: ≥ 62.5 µM
MIC [27]: 250 µM (≈ 592 µg/mL)
MIC [38]: 125 µM (≈ 296 µg/mL)
MIC [29]: 62.5 µM (≈ 148 µg/mL)
MIC [39]: 250 µM (≈ 592 µg/mL)
MIC [40]: 250 µM (≈ 592 µg/mL)

CC[C@H](C)[C@H](N)C(=O)N[C@@H](CC(C)C)C(=O)N1CCC[C@H]1C(=O)N[C@@H](Cc1c[nH]c2ccccc12)C(=O)N[C@@H](CCCCN)C(=O)N[C@@H](Cc1c[nH]c2ccccc12)C(=O)N[C@@H](CCCCN)C(=O)N[C@@H](Cc1c[nH]c2ccccc12)C(=O)N[C@H](C(=O)N1CCC[C@H]1C(=O)N[C@@H](Cc1c[nH]c2ccccc12)C(=O)N[C@@H](CCCN=C(N)N)C(=O)N[C@@H](CCCN=C(N)N)C(N)=O)[C@@H](C)O [ILPWKWKWTPWRR]
MIC [41]: 3 µM (≈ 5.56 µg/mL)
MIC [42]: 4 µM (≈ 7.41 µg/mL)
MIC [43]: 5 µM (≈ 9.26 µg/mL)
MIC [44]: 4 µM (≈ 7.41 µg/mL)
MIC [45]: 3 µM (≈ 5.56 µg/mL)
MIC [46]: 5 µM (≈ 9.26 µg/mL)
MIC [47]: 2.5 µM (≈ 4.63 µg/mL)
MIC [12]: 4 µM (≈ 7.41 µg/mL)
MIC [48]: 7 µM (≈ 13 µg/mL)
MIC [49]: 2 µM (≈ 3.7 µg/mL)
MIC [38]: 7 µM (≈ 13 µg/mL)
MIC [50]: 3 µM (≈ 5.56 µg/mL)
MIC [51]: 4 µM (≈ 7.41 µg/mL)
MIC [52]: 3 µM (≈ 5.56 µg/mL)
